Data taken from article PMC12202309 (International Journal of Neuropsychopharmacology, 2025).
Where “and” joins values, the source holds several entries; their conditions need not be identical. Equal values may be shown once.

Legend:
[1] = Rapid equilibrium dialysis, protein binding in plasma; format: in vitro ADME; details: C57BL/6N, mouse, plasma (pooled samples from the study mice), mean (range)
Method: (§1) Plasma samples collected from individual mice at each time point were pooled into composite samples due to insufficient sample volumes for performing RED. Similarly, brain homogenate samples from individual time points were pooled. RED was performed according to the manufacturer’s protocol (for details, see the Supplementary Materials). The free drug fraction in plasma was calculated by using Equation 1:
Rapid Equilibrium Dialysis. Briefly, 50 µL of drug-spiked plasma or 100 µL of 10-fold diluted brain homogenates were added to the sample chambers of the RED device, while 300 µL or 350 µL of phosphate-buffered saline (PBS, pH at 7.4) were added to the corresponding buffer chambers. Each pooled sample was analysed in triplicate. Control samples consisting of plasma and brain homogenates from the study, spiked with clozapine and trazodone at a target concentration of 100 ng/mL, were analysed in each measurement series. Each plate was sealed with aluminium foil and incubated at 37 ± 1 °C with an agitation at 350 rpm on an orbital shaker (Randox PHMP, Grant Instruments Ltd, Shepreth, Cambridgeshire, England) for 4 hours. After incubation, a matrix-matching procedure was performed: 10 µL of each post-dialysis sample was mixed with an equal volume of PBS, while 10 µL of each buffer sample was mixed with the corresponding blank plasma or brain homogenate. […]

[2] = Rapid equilibrium dialysis, binding in brain homogenates; format: in vitro ADME, mice; details: C57BL/6N, mouse; for fraction unbound at 4 h: mean (range), pooled samples, read-out: unbound fraction in the brain homogenate; for fraction unbound at 4 h, 100 ng/mL: pH 7.4, RED control samples spiked at 100 ng/mL, range, read-out: unbound fraction in brain homogenate, control samples
Method: as §1, with “1: […]” for “1:”
The free drug fraction in the brain homogenate was determined by using Equation 2, which accounts for the effect of tissue dilution on the unbound fraction:
fu,brain=1/D/(1/fu,diluted−1)+1/D
were D is the dilution factor in the brain homogenate and the fu,diluted associated free fraction determined as the ratio of concentrations in the buffer versus the diluted brain tissue.
Rapid Equilibrium Dialysis. Briefly, 50 µL of drug-spiked plasma or 100 µL of 10-fold diluted brain homogenates were added to the sample chambers of the RED device, while 300 µL or 350 µL of phosphate-buffered saline (PBS, pH at 7.4) were added to the corresponding buffer chambers. Each pooled sample was analysed in triplicate. Control samples consisting of plasma and brain homogenates from the study, spiked with clozapine and trazodone at a target concentration of 100 ng/mL, were analysed in each measurement series. Each plate was sealed with aluminium foil and incubated at 37 ± 1 °C with an agitation at 350 rpm on an orbital shaker (Randox PHMP, Grant Instruments Ltd, Shepreth, Cambridgeshire, England) for 4 hours. After incubation, a matrix-matching procedure was performed: 10 µL of each post-dialysis sample was mixed with an equal volume of PBS, while 10 µL of each buffer sample was mixed with the corresponding blank plasma or brain homogenate. Prior to analysis, 20 µL of the mixed plasma or brain homogenate samples were precipitated with 80 µL of acetonitrile containing an internal standard.

[3] = in vivo; details: for AUC(0-t): plasma, AUCt plasma, mean (95% CI)
Method: (§2) After a 1-week acclimation period, the mice were randomly assigned to 2 experimental groups of 36 animals each: (1) an LPS group was given a single 4 mg/kg intraperitoneal (IP) injection of lipopolysaccharide (LPS), serotype O55:B05 (Sigma) and (2) a control group received a vehicle (sterile phosphate-buffered saline). […] The volume load for mice weighing 25 g was 125 µL. […] The doses of DMSO and MC were 276 and 25 mg/kg. […] Sampling was performed at 2 intervals in each of the 18 mice injected with LPS and 18 controls. The first blood volume of 150 µL was taken into an EDTA-microvette CB 300 (Sardstedt) from a drop of blood after a small incision at the end of the tail. At the termination interval, the second blood sample was collected by cardiac puncture in terminal anesthesia, and then the animal was put to death by decapitation. […] The injected volume was 1 mL/kg, that is, 25 µL for a 25 g mouse. […] The injected volume was 2.5 mL/kg, that is, […]. After IV administrations, blood was sampled at 3, 5, 10, 20, and 40 minutes, and 1, 1.5, 2, 3, 4, and 6 hours. Blood samples were taken at 3 intervals in each mouse. The first 2 samples of 75 µL each were taken from the retroorbital plexus under brief anesthesia and the third terminal sample was described for oral dosing. Plasma samples were obtained from whole blood by centrifugation at 2000 × g for 5 minutes at 4°C. Whole brain, liver, and intestine were excised and immediately frozen in liquid nitrogen. All samples were stored at −80°C until analysis.
(§3) Details of the analysis can be found in the Supplementary Materials.
The calculation of the point estimate and the 95% bootstrap t-confidence interval for AUCt was performed with the help of the R-package PK (https://cran.r-project.org/web/packages/PK/index.html). Total brain-to-plasma drug partition coefficient (Kp,brain) and unbound brain-to-unbound plasma partition coefficient (Kp,uu, brain) were calculated using Equations 3 and 4: […]

[4] = Brain penetration (brain homogenate AUCt, Kp,brain, Kp,uu,brain); details: for Kp uu / Kp: C57BL/6N, mouse, brain, 0.5 mg/kg; for Kp uu: Kp,uu,brain; for Kp: Kp,brain; for AUCt brain homogenate: 4 mg/kg PO OL, t = 24 hours, mean (95% CI); for animals with brain homogenate concentration below the detection limit of 0.20 ng/g: PO olanzapine
Method: as §2, §3
The calculation of the point estimate and the 95% bootstrap t-confidence interval for AUCt was performed with the help of the R-package PK (https://cran.r-project.org/web/packages/PK/index.html). Total brain-to-plasma drug partition coefficient (Kp,brain) and unbound brain-to-unbound plasma partition coefficient (Kp,uu, brain) were calculated using Equations 3 and 4:
Kp,brain=AUCt,brain/AUCt,plasma
Kp, uu,brain=fu,brain × AUCt,brain/fu, plasma × AUCt,plasma

[5] = C57BL/6N, mouse, in vivo
Method: (§4) The individual values of the pharmacokinetic parameters were obtained as empirical Bayes estimates.
(§5) In the second step, the concentration-time data after the intravenous administration of DMO were modelled to assess distribution and elimination of the metabolite. […] The PK parameters of DMO were fixed to the values estimated after a single IV dose of the metabolite. […] The goodness-of-fit achieved by the pharmacokinetic models was assessed with the help of the objective function value and diagnostic plots of 1/observed and predicted concentrations vs. time, 2/ observed vs. individually predicted concentrations, 3/ weighted residuals vs. time and 4/ weighted residuals vs. predicted concentrations. Finally, the mean prediction errors and the mean absolute prediction errors were calculated.
(§6) The between-animal variability in model parameters were described by an exponential model and a proportional model was used to describe the residual variability.

[6] = protonated form; no reference given; cited from earlier work
[7] = Population compartmental pharmacokinetic modelling of olanzapine and DMO;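 also: pharmacokinetic model fitted to concentration-time data, with between-animal variability described exponentially, residual error proportional, and effect of LPS injection assessed on clearance and distribution volumes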
Method: as §4, §5, §6

[8] = system: mice; set-up: method as in supplement 4; details: p.o., ref supplement 4; cited from earlier work
[9] = set-up: method as in supplement 9; details: rat; 15 % (w:v) DMSO (660 mg/kg) in 0.5 % MC p.o.; ref supplement 9; cited from earlier work

In the case of `Cc1cc2c(s1)Nc1ccccc1N=C2N1CCNCC1` [DMO, 4’-N-desmethylolanzapine], the fraction unbound at 4 h ([1]; pH 7.4, LPS mice) is reported as 0.083, the fraction unbound at 4 h ([1]; pH 7.4, control mice) is reported as 0.13 and the fraction unbound at 4 h ([2]; pH 7.4, LPS mice) is reported as 0.088. For the same molecule, the fraction unbound at 4 h ([2]; pH 7.4, control mice) was 0.087, the “increase of mean plasma AUC24h, LPS mice vs controls” value ([3]; C57BL/6N, mouse, in vivo, 4 mg/kg) was 2.6 fold and the “increase of plasma AUC in LPS mice” value ([3]; C57BL/6N, mouse, in vivo, po) was 140%. The AUC(0-t) ([3]; C57BL/6N, mouse, iv, 0.5 mg/kg, Controls, 0.5 mg/kg IV DMO, t = 6 hours) was 562 ng·h/mL, the AUC(0-t) ([3]; C57BL/6N, mouse, iv, 0.5 mg/kg, Controls, 0.5 mg/kg IV olanzapine, t = 6 hours) was 28.7 ng·h/mL and the AUC(0-t) ([3]; C57BL/6N, mouse, iv, 0.5 mg/kg, LPS mice, 0.5 mg/kg IV DMO, t = 6 hours) was 1690 ng·h/mL. The AUC(0-t) ([3]; C57BL/6N, mouse, iv, 0.5 mg/kg, LPS mice, 0.5 mg/kg IV olanzapine, t = 6 hours) was 57.6 ng·h/mL, the AUC(0-t) ([3]; C57BL/6N, mouse, po, 4 mg/kg, Controls, 4 mg/kg PO olanzapine, t = 24 hours) was 408 ng·h/mL and the AUC(0-t) ([3]; C57BL/6N, mouse, po, 4 mg/kg, LPS mice, 4 mg/kg PO olanzapine, t = 24 hours) was 1070 ng·h/mL. For the same molecule, the Kp uu ([4]; intravenous, abstract, LPS and control mice) was no more than 0.051, the Kp ([4]; iv, Controls, 0.5 mg/kg IV DMO) was 0.077 and the Kp ([4]; iv, LPS mice, 0.5 mg/kg IV DMO) was 0.039. For the same molecule, the Kp uu ([4]; iv, Controls, 0.5 mg/kg IV DMO) was 0.051, the Kp uu ([4]; iv, LPS mice, 0.5 mg/kg IV DMO) was 0.042 and the AUCt brain homogenate ([4]; Controls) was “trace levels^b”. For the same molecule, the “brain homogenate levels after IV olanzapine” value ([4]; LPS animals and controls, IV olanzapine) was “neither the LPS animals nor the controls had any brain homogenate levels of DMO higher than the limits of detection”, the “animals with brain homogenate concentration below the detection limit of 0.20 ng/g” value ([4]; LPS group) was 4 of 18 and the AUCt brain homogenate ([4]; LPS mice) was “trace levels^b”. The “animals with brain homogenate concentration below the detection limit of 0.20 ng/g” value ([4]; control group) was 5 of the 18, the Q [5] was 2.51 (30%) L·hour^−1.kg^-1 and the V1 [5] was 1.6 (14%) L.kg^-1. The V2 [5] was 1.49 (14%) L.kg^-1, the “decrease in the plasma clearance of DMO in LPS mice” value [5] was 4.8 fold and the βCL_LPS [5] was -1.54 (21%). The βV1_LPS [5] was -1.2 (15%), the βV2_LPS [5] was -0.56 (38%) and the “ωCL, percent interindividual variability” value [5] was 54 (34%). For the same molecule, the “ωQ, percent interindividual variability” value [5] was 17 (90%), the “ωV1, percent interindividual variability” value [5] was 37 (18%) and the “ωV2, percent interindividual variability” value [5] was 13 (122%). The “decrease of median V1 by LPS in comparison to controls” value ([5]; iv) was 70%, the “decrease of median V2 by LPS in comparison to controls” value ([5]; iv) was 43% and the pKa [6] was 8.8. For the same molecule, the clearance ([7]; C57BL/6N, mouse, plasma) was 10.3 mL/min/kg.

In the case of `C[S+](C)[O-]` [DMSO, dimethyl sulfoxide], the LD50 [8] is given as 16.5 to 24.6 g/kg.

For `O=C1CCc2cc(OCCCCc3nnnn3C3CCCCC3)ccc2N1` [cilostazole], the “increase of AUC for plasma cilostazole by DMSO” value [9] is given as 32%.

Molecule `CN1CCN(C2=Nc3cc(Cl)ccc3Nc3ccccc32)CC1` [clozapine] has a fraction unbound at 4 h, 100 ng/mL [2] of 0.014 to 0.021.

In the case of `Cc1cc2c(s1)Nc1ccccc1N=C2N1CCN(C)CC1` [olanzapine], the “increase of mean plasma AUC24h, LPS mice vs controls” value ([3]; 4 mg/kg PO olanzapine) is reported as 3.8 fold, the CL/F ([3]; mouse, in vivo, po, 4 mg/kg) is reported as 552 mL/min/kg and the “brain AUC higher in LPS mice than controls” value ([4]; intravenous olanzapine 0.5 mg/kg) is reported as 1.8 fold. The “brain AUC higher in LPS mice than controls” value ([4]; oral olanzapine 4 mg/kg) was 5.2 fold and 5 fold, the Q [5] was 9.0 (31%) L·hour^−1.kg^-1 and the V1 [5] was 4.1 (13%) L.kg^-1. For the same molecule, the V2 [5] was 3.5 (18%) L.kg^-1, the “higher absolute bioavailability in LPS mice” value [5] was 200% and the βCL_LPS [5] was -0.43 (42%). The βF_LPS [5] was 1.14 (14%), the “ωCL, percent interindividual variability” value [5] was 24 (37%) and the “ωF, percent interindividual variability” value [5] was 16 (38%). For the same molecule, the “ωQ, percent interindividual variability” value [5] was 73 (49%), the “ωV1, percent interindividual variability” value [5] was 45 (32%) and the “ωV2, percent interindividual variability” value [5] was 83 (20%). The Fp.o. olanzapine ([7]; population median (%RSE), reference group controls) was 0.075 (12%).

`O=c1n(CCCN2CCN(c3cccc(Cl)c3)CC2)nc2ccccn12` [trazodone] gave a fraction unbound at 4 h, 100 ng/mL [2] of 0.078 to 0.118.
